Measurements taken from ChEMBL document CHEMBL3797134, “Selectivity of 3-bromo-isoxazoline inhibitors between human and Plasmodium falciparum glyceraldehyde-3-phosphate dehydrogenases” (Bioorg Med Chem, 2016).
The source made the active and inactive calls. The calls are words filed in the database; no cut-off is given here.

Columns and labels:
[1] = target: Glyceraldehyde-3-phosphate dehydrogenase (Plasmodium falciparum) (UniProt Q8T6B1); experiment: Inhibition of recombinant His-tagged Plasmodium falciparum GAPDH expressed in Escherichia coli using sodium arseniate as substrate at 50 to 300 uM
Sequence of Glyceraldehyde-3-phosphate dehydrogenase (Plasmodium falciparum) (Q8T6B1 as listed by the source): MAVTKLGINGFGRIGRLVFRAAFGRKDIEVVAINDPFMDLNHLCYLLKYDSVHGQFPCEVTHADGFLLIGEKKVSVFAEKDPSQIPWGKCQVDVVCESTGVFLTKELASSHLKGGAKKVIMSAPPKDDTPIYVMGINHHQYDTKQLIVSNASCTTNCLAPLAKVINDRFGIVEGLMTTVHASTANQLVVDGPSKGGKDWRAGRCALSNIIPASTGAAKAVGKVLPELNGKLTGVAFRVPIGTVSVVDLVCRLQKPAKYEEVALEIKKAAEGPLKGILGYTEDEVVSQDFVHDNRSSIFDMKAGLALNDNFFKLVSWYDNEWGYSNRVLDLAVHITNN

[2] = target: Glyceraldehyde-3-phosphate dehydrogenase (Homo sapiens) (UniProt P04406); experiment: Inhibition of recombinant N-terminal His-tagged human GAPDH expressed in Escherichia coli BL21 codonPlus (DE3)-RIL cells using sodium arseniate as substrate at 10 to 300 uM
Sequence of Glyceraldehyde-3-phosphate dehydrogenase (Homo sapiens) (P04406 2-335 limits assumed): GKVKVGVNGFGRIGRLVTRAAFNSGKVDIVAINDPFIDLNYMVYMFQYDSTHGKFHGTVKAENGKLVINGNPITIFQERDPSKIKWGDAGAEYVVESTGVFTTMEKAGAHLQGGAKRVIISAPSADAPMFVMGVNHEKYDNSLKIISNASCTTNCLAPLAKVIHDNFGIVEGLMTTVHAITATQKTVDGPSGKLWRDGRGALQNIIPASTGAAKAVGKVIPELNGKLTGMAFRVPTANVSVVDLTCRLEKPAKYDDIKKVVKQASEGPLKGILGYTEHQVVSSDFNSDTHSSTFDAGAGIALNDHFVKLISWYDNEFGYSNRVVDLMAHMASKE

[3] = target: Glyceraldehyde-3-phosphate dehydrogenase (Plasmodium falciparum) (UniProt Q8T6B1); experiment: Slow phase inhibition of recombinant His-tagged Plasmodium falciparum GAPDH expressed in Escherichia coli using sodium arseniate as substrate assessed as ratio of Kinact to Ki by Kitz-Wilson double reciprocal plot analysis
[4] = target: Glyceraldehyde-3-phosphate dehydrogenase (Plasmodium falciparum) (UniProt Q8T6B1); experiment: Fast phase inhibition of recombinant His-tagged Plasmodium falciparum GAPDH expressed in Escherichia coli using sodium arseniate as substrate assessed as ratio of Kinact to Ki by Kitz-Wilson double reciprocal plot analysis
[5] = target: Glyceraldehyde-3-phosphate dehydrogenase (Homo sapiens) (UniProt P04406); experiment: Fast phase inhibition of recombinant N-terminal His-tagged human GAPDH expressed in Escherichia coli BL21 codonPlus (DE3)-RIL cells using sodium arseniate as substrate assessed as ratio of Kinact to Ki by Kitz-Wilson double reciprocal plot analysis
[6] = target: Glyceraldehyde-3-phosphate dehydrogenase (Homo sapiens) (UniProt P04406); experiment: Binding affinity to recombinant N-terminal His-tagged human GAPDH expressed in Escherichia coli BL21 codonPlus (DE3)-RIL cells assessed as decrease in reactive cysteine content at 50 uM after 4 hrs relative to control; set-up: scale not given: the % may be the effect or the level left
[7] = target: Glyceraldehyde-3-phosphate dehydrogenase (Homo sapiens) (UniProt P04406); experiment: Binding affinity to recombinant N-terminal His-tagged human GAPDH expressed in Escherichia coli BL21 codonPlus (DE3)-RIL cells assessed as remaining cysteine pKa at 300 uM after 4 hrs (reference value: 6)
[8] = target: Glyceraldehyde-3-phosphate dehydrogenase (Homo sapiens) (UniProt P04406); experiment: Effect on dimer to tetramer equilibrium of recombinant N-terminal His-tagged human GAPDH expressed in Escherichia coli BL21 codonPlus (DE3)-RIL cells at 50 uM after 4 hrs by gel filtration method
COc1ccc(C2CC(Br)=NO2)cc1 [9] = experiment: Binding affinity to recombinant N-terminal His-tagged human GAPDH expressed in Escherichia coli BL21 codonPlus (DE3)-RIL cells assessed as enzyme Km at 50 uM after 4 hrs by Michaelis-Menten plot analysis (reference value: 340+/- 5 uM)
COc1ccc(C2CC(Br)=NO2)cc1 [10] = experiment: Binding affinity to recombinant N-terminal His-tagged human GAPDH expressed in Escherichia coli BL21 codonPlus (DE3)-RIL cells assessed as enzyme Vmax at 50 uM after 4 hrs by Michaelis-Menten plot analysis (reference value: 0.069 +/- 0.003 mM/min)

Sequence of Glyceraldehyde-3-phosphate dehydrogenase (Homo sapiens), P04406 (P04406 whole entry): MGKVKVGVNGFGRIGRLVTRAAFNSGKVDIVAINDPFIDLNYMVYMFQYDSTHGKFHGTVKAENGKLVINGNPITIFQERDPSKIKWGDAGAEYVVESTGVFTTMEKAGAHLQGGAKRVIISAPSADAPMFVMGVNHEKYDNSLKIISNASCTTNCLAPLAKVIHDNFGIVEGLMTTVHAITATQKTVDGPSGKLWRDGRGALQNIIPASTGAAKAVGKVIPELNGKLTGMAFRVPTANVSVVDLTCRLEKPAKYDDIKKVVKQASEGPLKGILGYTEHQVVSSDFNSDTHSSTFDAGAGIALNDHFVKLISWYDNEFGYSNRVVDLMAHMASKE

inhibition [1] | inhibition [2] | Ratio [3] | Ratio [4] | Ratio [5] | Activity [6] | pKa [7] | Activity [8] | Molecule | Km (COc1ccc(C2CC(Br)=NO2)cc1 [9]) | Vmax (COc1ccc(C2CC(Br)=NO2)cc1 [10])
25% | Active | 0.34 s⁻¹ M⁻¹ | 59.9 s⁻¹ M⁻¹ | 142 s⁻¹ M⁻¹ | 7.8% | 6.3 | inactive | COc1ccc(C2CC(Br)=NO2)cc1 (stereo unspecified) |  | 
 |  | 10.7 s⁻¹ M⁻¹ |  |  |  |  |  | COC(=O)[C@@H](N)[C@@H]1CC(Br)=NO1 |  | 
 |  |  |  |  |  |  |  | Glyceraldehyde-3-phosphate dehydrogenase (Homo sapiens), P04406 | 299 µM | 0.051 mM/min
